ChEMBL document CHEMBL5465560, “Selectivity Literature for EUbOPEN Chemogenomic Library” (2024)

Tests used:
[1] = system: Tyrosine-protein kinase ABL1 (Homo sapiens), P00519 [E255K]; assay: (§1) Selectivity interaction (Kinase panel (Z-LYTE Assay)) EUB0001632a ABL1; conditions: at 10 µM
[2] = system: Tyrosine-protein kinase ABL1 (Homo sapiens), P00519 [F317I]; assay: as §1; conditions: at 10 µM
[3] = system: Tyrosine-protein kinase ABL1 (Homo sapiens), P00519 [G250E]; assay: as §1; conditions: at 10 µM
[4] = system: Tyrosine-protein kinase ABL1 (Homo sapiens), P00519 [T315I]; assay: as §1; conditions: at 10 µM
[5] = system: Tyrosine-protein kinase ABL1 (Homo sapiens), P00519 [Y253F]; assay: as §1; conditions: at 10 µM
[6] = target: Tyrosine-protein kinase ABL1 (Homo sapiens, UniProt P00519); assay: as §1; conditions: at 10 µM
[7] = target: Calcium/calmodulin-dependent protein kinase type 1D (Homo sapiens) (UniProt Q8IU85); assay: Selectivity interaction (Kinase panel (Z-LYTE Assay)) EUB0001632a CAMK1D; conditions: at 10 µM
[8] = target: Serine/threonine-protein kinase B-raf (Homo sapiens) (UniProt P15056); assay: (§2) Selectivity interaction (KinomeScan (DiscoverX)) EUB0000666a BRAF; conditions: at 10 µM
[9] = system: Serine/threonine-protein kinase B-raf (Homo sapiens), P15056 [V600E]; assay: as §2; conditions: at 10 µM
[10] = target: Protein kinase C theta type (Homo sapiens, UniProt Q04759); assay: Selectivity interaction (SelectScreen profiling (Invitrogen)) EUB0000607a PRKCQ; conditions: at 2 µM
[11] = target: T1, Serine/threonine-protein kinase TBK1 (Homo sapiens) (UniProt Q9UHD2); assay: Selectivity interaction (ActivX KiNativ screen (kinase selectivity in THP-1 cell lysates)) EUB0000639a TBK1; format: subcellular; conditions: lysate
T1 sequence (whole entry): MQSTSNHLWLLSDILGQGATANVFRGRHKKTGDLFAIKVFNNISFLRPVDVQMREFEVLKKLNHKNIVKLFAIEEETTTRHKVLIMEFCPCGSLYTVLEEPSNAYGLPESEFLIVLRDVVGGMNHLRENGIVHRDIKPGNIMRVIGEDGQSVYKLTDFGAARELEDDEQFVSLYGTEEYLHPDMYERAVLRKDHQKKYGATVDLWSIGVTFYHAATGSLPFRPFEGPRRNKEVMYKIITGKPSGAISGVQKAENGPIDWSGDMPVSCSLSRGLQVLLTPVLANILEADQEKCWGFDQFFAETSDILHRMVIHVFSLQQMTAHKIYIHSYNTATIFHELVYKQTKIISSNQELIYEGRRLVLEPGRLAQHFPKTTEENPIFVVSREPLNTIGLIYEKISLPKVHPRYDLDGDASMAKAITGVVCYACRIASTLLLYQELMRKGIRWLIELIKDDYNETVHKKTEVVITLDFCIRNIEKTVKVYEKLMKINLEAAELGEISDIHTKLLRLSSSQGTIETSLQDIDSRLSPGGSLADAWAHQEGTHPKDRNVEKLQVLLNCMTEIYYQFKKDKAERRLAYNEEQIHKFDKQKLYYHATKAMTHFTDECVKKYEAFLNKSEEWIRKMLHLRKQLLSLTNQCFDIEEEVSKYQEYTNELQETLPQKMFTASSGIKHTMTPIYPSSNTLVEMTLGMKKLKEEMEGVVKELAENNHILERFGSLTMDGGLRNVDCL

[12] = target: Serine/threonine-protein kinase MRCK alpha (Homo sapiens) (UniProt Q5VT25); assay: Selectivity interaction (Kinase panel (DSF assay)) EUB0001559a CDC42BPA
[13] = target: Focal adhesion kinase 1 (Homo sapiens, UniProt Q05397); assay: Selectivity interaction (KinomeScan (DiscoverX)) EUB0001049a PTK2; conditions: at 1 µM
[14] = target: T2, Tyrosine-protein kinase ZAP-70 (Homo sapiens, UniProt P43403)
T2 sequence (P43403 whole entry): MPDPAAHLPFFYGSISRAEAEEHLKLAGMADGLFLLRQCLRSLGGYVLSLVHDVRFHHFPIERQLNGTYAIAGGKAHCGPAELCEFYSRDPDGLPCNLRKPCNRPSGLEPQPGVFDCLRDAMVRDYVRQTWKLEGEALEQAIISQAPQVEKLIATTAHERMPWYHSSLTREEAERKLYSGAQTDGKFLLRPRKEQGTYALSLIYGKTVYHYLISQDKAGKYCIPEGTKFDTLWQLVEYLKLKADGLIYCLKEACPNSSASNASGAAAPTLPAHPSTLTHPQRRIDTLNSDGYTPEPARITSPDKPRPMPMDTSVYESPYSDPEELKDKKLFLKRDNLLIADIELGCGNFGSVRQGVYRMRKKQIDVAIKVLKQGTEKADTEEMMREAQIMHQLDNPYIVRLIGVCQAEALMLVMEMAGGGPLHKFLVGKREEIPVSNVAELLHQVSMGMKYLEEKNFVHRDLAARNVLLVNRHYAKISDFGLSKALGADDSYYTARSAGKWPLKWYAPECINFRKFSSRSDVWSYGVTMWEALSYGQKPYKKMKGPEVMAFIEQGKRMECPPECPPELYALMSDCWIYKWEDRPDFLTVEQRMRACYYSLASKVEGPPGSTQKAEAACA

[15] = target: Casein kinase I isoform delta (Homo sapiens, UniProt P48730); assay: Selectivity interaction (KinomeScan (DiscoverX)) EUB0000045b CSNK1D
[16] = target: Vascular endothelial growth factor receptor 1 (Homo sapiens) (UniProt P17948); assay: Selectivity interaction (KinomeScan (DiscoverX)) EUB0000229b FLT1; conditions: at 10 µM
[17] = target: T3, Phosphatidylinositol 5-phosphate 4-kinase type-2 gamma (Homo sapiens) (UniProt Q8TBX8); conditions: at 10 µM
T3 sequence (whole entry): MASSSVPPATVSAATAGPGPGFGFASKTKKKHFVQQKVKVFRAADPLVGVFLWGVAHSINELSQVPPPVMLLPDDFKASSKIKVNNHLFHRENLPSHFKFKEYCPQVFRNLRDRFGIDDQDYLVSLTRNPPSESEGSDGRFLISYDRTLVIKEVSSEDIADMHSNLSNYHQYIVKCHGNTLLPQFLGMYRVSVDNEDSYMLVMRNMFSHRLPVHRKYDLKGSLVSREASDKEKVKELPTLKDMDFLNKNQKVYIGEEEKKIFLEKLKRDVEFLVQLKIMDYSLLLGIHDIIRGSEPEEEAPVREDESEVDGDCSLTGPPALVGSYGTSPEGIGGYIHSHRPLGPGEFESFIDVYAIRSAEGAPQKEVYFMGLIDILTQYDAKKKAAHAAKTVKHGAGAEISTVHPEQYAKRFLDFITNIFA

[18] = target: Leukocyte tyrosine kinase receptor (Homo sapiens, UniProt P29376); assay: Selectivity interaction (KinomeScan (DiscoverX)) EUB0000618a LTK; conditions: at 10 µM
[19] = target: Serine/threonine-protein kinase NIM1 (Homo sapiens, UniProt Q8IY84); assay: Selectivity interaction (KinomeScan (DiscoverX)) EUB0001619a NIM1K; conditions: at 1 µM
Sequence of Serine/threonine-protein kinase NIM1 (Q8IY84 whole entry): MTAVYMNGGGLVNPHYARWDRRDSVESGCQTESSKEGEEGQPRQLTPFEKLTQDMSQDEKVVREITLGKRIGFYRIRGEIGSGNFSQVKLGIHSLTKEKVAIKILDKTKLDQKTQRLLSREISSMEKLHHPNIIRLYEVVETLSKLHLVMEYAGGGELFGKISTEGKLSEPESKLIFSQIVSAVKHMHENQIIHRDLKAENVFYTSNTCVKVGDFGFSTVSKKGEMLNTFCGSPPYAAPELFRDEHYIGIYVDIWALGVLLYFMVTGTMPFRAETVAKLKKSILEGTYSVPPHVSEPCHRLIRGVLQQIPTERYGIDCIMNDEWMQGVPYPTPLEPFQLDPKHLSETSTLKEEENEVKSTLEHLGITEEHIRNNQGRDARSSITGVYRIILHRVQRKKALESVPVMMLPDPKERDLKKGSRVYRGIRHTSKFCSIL

Sequence of Casein kinase I isoform delta (P48730 whole entry, looked up, canonical isoform): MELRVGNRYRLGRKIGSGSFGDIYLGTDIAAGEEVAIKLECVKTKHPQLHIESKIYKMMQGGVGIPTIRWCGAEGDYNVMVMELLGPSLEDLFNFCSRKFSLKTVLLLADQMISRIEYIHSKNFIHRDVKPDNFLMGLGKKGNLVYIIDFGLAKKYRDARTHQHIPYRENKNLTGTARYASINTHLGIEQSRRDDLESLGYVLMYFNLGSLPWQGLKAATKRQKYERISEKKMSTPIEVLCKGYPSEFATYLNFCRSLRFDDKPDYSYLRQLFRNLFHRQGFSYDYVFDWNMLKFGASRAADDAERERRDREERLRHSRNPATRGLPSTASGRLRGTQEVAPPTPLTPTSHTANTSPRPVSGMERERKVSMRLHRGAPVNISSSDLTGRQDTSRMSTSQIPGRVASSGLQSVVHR
Sequence of Protein kinase C theta type (Q04759 whole entry, looked up): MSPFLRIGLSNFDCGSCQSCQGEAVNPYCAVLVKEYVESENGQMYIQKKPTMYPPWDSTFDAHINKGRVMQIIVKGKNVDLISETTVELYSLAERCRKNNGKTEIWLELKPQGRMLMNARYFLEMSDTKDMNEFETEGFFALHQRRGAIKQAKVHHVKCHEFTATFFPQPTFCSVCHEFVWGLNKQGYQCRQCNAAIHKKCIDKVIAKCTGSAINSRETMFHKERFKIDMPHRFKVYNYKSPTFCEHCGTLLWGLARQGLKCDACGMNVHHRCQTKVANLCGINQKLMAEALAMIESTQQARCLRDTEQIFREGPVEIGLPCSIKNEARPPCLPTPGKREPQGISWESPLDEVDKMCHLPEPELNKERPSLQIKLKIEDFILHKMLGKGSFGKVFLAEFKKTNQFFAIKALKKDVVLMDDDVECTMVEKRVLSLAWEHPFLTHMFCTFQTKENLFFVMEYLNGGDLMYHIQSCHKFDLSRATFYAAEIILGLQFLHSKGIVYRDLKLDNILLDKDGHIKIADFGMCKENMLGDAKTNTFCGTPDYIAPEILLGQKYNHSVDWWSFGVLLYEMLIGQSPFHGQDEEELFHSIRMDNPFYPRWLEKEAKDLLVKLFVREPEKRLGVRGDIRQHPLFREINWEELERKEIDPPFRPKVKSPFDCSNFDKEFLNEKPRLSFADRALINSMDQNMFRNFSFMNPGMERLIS
Sequence of Focal adhesion kinase 1 (Q05397 2-1052 limits assumed): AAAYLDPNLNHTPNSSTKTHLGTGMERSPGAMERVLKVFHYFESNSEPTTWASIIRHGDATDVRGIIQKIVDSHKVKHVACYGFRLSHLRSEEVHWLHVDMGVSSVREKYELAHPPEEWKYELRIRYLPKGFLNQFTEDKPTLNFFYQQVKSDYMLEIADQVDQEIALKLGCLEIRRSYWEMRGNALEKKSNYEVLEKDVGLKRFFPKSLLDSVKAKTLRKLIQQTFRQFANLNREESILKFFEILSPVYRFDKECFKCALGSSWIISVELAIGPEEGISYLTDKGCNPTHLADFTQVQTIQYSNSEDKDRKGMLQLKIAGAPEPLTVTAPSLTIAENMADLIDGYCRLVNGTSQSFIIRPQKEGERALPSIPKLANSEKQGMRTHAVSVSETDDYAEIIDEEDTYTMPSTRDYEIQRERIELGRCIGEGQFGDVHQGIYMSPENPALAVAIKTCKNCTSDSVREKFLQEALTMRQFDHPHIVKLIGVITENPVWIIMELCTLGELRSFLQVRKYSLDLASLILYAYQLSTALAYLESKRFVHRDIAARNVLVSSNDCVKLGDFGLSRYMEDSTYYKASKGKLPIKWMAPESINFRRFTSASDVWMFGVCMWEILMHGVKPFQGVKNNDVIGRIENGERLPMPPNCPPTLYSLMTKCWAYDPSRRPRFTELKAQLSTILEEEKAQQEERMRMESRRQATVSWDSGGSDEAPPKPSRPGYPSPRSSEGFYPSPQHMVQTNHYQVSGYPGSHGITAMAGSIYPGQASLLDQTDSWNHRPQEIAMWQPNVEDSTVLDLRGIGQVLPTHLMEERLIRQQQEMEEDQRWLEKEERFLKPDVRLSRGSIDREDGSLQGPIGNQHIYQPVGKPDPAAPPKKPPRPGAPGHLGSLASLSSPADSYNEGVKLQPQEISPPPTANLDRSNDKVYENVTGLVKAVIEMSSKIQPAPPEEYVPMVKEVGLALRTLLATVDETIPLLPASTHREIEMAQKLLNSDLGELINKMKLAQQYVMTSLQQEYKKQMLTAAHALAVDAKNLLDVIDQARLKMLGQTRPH
Sequence of Serine/threonine-protein kinase B-raf (Homo sapiens) (P15056 whole entry): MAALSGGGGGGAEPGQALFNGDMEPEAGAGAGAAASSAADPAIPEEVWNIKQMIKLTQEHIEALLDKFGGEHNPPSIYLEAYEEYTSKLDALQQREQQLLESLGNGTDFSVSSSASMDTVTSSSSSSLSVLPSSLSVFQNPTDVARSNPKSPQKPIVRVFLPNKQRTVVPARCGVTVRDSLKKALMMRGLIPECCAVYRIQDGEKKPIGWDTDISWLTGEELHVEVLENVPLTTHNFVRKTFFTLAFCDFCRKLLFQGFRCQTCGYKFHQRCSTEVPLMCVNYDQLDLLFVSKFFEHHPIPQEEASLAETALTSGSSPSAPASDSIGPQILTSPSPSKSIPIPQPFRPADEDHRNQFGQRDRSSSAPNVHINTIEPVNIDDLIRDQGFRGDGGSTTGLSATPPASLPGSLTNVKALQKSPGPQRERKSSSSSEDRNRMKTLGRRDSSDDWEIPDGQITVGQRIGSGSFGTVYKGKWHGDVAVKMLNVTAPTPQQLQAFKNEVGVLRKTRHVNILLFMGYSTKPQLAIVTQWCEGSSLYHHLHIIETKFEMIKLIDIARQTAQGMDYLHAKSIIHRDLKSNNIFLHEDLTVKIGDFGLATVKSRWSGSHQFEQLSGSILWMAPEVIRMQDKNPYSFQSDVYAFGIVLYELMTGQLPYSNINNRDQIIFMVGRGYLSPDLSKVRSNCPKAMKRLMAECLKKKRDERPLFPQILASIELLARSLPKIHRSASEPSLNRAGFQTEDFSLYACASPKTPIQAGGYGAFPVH
Sequence of Calcium/calmodulin-dependent protein kinase type 1D (Homo sapiens) (Q8IU85 whole entry, looked up): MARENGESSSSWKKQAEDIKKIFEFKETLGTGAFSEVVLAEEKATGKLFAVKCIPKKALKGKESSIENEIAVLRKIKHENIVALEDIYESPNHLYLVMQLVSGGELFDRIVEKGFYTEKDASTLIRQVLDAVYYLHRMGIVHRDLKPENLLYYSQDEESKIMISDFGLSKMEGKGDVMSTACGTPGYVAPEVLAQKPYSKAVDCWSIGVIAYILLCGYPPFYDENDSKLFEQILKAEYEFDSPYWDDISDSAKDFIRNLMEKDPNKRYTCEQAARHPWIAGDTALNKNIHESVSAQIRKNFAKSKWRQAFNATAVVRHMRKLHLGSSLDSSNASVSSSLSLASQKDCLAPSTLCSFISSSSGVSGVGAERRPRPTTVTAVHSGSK
Sequence of Serine/threonine-protein kinase B-raf (Homo sapiens), P15056 [V600E] (P15056 whole entry V600E): as the sequence (P15056 whole entry) above, with V600E counted along it
Sequence of Leukocyte tyrosine kinase receptor (P29376 whole entry): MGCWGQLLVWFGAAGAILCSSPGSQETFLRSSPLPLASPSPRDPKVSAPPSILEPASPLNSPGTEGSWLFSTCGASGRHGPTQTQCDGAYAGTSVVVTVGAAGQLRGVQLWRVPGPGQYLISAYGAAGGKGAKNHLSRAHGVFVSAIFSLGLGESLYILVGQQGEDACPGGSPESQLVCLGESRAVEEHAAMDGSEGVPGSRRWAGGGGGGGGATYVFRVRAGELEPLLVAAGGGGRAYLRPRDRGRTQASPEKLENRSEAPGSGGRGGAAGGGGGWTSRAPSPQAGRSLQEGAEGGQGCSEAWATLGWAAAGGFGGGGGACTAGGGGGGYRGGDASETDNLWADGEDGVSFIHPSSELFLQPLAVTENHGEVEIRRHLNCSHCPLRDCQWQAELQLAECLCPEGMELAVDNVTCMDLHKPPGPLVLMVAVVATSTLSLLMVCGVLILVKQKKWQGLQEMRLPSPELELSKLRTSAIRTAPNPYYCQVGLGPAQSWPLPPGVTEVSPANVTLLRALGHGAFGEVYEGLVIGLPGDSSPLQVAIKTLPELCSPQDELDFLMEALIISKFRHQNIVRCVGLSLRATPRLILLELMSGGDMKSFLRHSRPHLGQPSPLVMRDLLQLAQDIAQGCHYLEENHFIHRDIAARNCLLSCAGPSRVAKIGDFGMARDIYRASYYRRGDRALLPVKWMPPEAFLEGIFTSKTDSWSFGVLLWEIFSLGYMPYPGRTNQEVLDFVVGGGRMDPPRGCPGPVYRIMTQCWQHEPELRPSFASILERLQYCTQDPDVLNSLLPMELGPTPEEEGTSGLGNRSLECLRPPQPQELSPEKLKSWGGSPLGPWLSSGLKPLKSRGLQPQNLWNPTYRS

Question: For `Cn1cc(-n2cnc3c(NCc4nc5cc(Cl)c(Cl)cc5[nH]4)nc(N4CCOCC4)nc32)cn1`, which % of control [1] is on record?
Answer: The % of control was -3.74%.

Question: And the % of control [2]?
Answer: Its % of control is 1.78%.

Question: And the % of control [3]?
Answer: The % of control was 2.49%.

Question: What about the % of control [4] of the same compound?
Answer: Its % of control is -2.31%.

Question: What about the % of control [5] of the same compound?
Answer: The % of control was 2.36%.

Question: What about the % of control [6] of the same compound?
Answer: The % of control was -6.52%.

Question: What about the % of control [7] of the same compound?
Answer: The % of control was 2.81%.

Question: For `O=C(NOC[C@H](O)CO)c1ccc(F)c(F)c1Nc1ccc(I)cc1F`, which % of control [8] is on record?
Answer: The % of control was 98%.

Question: What about the % of control [9] of the same compound?
Answer: Its % of control is 100%.

Question: With `CNC(=O)Nc1ccc(-c2nc(N3CC4CCC(C3)O4)c3cnn(C4CCC5(CC4)OCCO5)c3n2)cc1` as the compound, how does the % of inhibition [10] read?
Answer: Its % of inhibition is 5%.

Question: `CC[C@@H]1[C@H](F)C(=O)N[C@@H]1COc1nccc2cc(C(N)=O)c(OC)cc12` [ZIMLOVISERTIB] was tested. Which % of inhibition ([11]; at 0.01 µM) did it give?
Answer: The % of inhibition was -51.9%.

Question: And the % of inhibition ([11]; at 0.04 µM)?
Answer: The % of inhibition was -22.2%.

Question: And the % of inhibition ([11]; at 0.2 µM)?
Answer: Its % of inhibition is -29.9%.

Question: And the % of inhibition ([11]; at 1 µM)?
Answer: The % of inhibition was 10%.

Question: And the % of inhibition ([11]; at 5 µM)?
Answer: The % of inhibition was 26.2%.

Question: For `CN(C(=O)c1cnn2cccnc12)c1cc2c(cc1N1CCOCC1)C(=O)N(C[C@@H](F)C(C)(C)O)C2`, which dTM [12] is on record?
Answer: Its dTM is 0 K.

Question: How did the % of control [13] turn out when `COc1cc(Nc2nc(C)cc(-c3cnn4nc(OC)ccc34)n2)cc(C(F)(F)F)c1` was run?
Answer: The % of control was 86%.

Question: Which IC50 [14] does the source give for `CCc1cccc(CC)c1NC(=O)c1nn(C)c2c1CCc1cnc(Nc3ccc(C(=O)NC4CCN(C)CC4)cc3OC(F)(F)F)nc1-2` here?
Answer: Its IC50 is greater than 10 µM.

Question: Which % of control ([15]; at 1 µM) does the source give for `C=CC(=O)Nc1cc(-n2c(=O)ccc3cnc4ccc(-c5ccc(NS(C)(=O)=O)cc5)cc4c32)ccc1C` here?
Answer: Its % of control is 84%.

Question: And the % of control ([15]; at 10 µM)?
Answer: The % of control was 90%.

Question: `COc1cc(N(C)c2ccnc3ccc(C(F)(F)F)cc23)cc(OC)c1OC` was tested. Which % binding [16] did it give?
Answer: Its % binding is 100%.

Question: `Cc1cc([C@@H](C)Nc2ccccc2C(=O)O)c2nc(N3CCOCC3)cc(=O)n2c1` [AZD-6482] was tested. Which % of control [17] did it give?
Answer: Its % of control is 58%.

Question: How did the % of control [18] turn out when `O[C@H]1CC[C@H](Nc2ncc3nc(Nc4c(F)cc(F)cc4F)n([C@H]4CCOC4)c3n2)CC1` was run?
Answer: The % of control was 100%.

Question: How did the % of control [19] turn out when `N#Cc1cccc(-c2c[nH]c3ncnc(N4CCOCC4)c23)c1` was run?
Answer: The % of control was 80%.
